target: T1, Deoxyhypusine hydroxylase (Plasmodium falciparum (isolate 3D7)) (UniProt Q8I701); assay: MMV: Deoxyhypusine hydroxylase activity assay.; conditions: concentration not given here
T1 sequence (whole entry): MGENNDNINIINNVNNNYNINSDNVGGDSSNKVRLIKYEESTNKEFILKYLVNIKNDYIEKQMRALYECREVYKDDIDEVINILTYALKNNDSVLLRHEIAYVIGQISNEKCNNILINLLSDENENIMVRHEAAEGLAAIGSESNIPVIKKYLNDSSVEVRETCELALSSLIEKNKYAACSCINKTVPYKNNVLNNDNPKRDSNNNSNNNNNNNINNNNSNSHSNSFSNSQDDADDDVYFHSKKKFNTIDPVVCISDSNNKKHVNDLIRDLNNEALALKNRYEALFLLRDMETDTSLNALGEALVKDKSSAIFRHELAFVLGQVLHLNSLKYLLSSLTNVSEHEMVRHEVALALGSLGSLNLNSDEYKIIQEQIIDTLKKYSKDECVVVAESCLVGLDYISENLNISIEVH

| inhibition [%] | SMILES |
| --- | --- |
| 43.3 | CCOc1ccc(-c2nonc2NC(=O)c2cccc(C)c2)cc1OCC |
| 35.9 | c1ccc(Cn2c(N=Nc3c(Nc4ccccc4)ccc4ccccc34)nc3ccccc32)cc1 |
| 38.8 | COc1ccc(-c2nc3cc(Cc4ccc5[nH]c(-c6ccc(OC)cc6)nc5c4)ccc3[nH]2)cc1 |

From ChEMBL document CHEMBL3301470, “MMV Malaria Box screening against Plasmodium falciparum Deoxyhypusine hydroxylase” (2015)
